Experimental data taken from patent US6399629B1, “Efflux pump inhibitors” (priority 1998, dated 2002).

Test system: Pseudomonas aeruginosa PAM1001
Experiment: checkerboard assay (broth microdilution): levofloxacin MIC in presence of efflux pump inhibitor
Assay type: cell-based
Protocol: For compounds labeled with the prefix ‘M’, potentiation effect is observed by the reduction of the minimum inhibitory concentration of levofloxacin in the presence of the experimental efflux pump inhibitor. The activity of efflux pump inhibitors (EPI) in combination with fluoroquinolones, such as levofloxacin, is assessed by the checkerboard assay (Antimicrobial Combinations. In Antibiotics in Laboratory Medicine, Ed. Victor Lorian, M.D., Fourth edition, 1996, pp 333-338) using broth microdilution method performed as recommended by the National Committee for Clinical Laboratory Standards (1997). Methods for Dilution of Antimicrobial Susceptibility Tests for Bacteria That Grow Aerobically—Fourth Edition; Approved Standard. NCCLS Document M7-A4, Vol 17 No.2). The test organism used is Pseudomonas aeruginosa PAM1001. […] The compounds tabulated below are representative of the described invention.
In these assays, multiple dilutions of two drugs, namely the EPI and levofloxacin, are being tested, alone and in combination, at concentrations equal to, above and below their respective minimal inhibitory concentrations (MICs). In the case of EPI, most of these compounds are devoid of intrinsic antimicrobial activity and are tested up to the maximum concentration of 40 μg/mL. The MIC of levofloxacin against P. aeruginosa PAM1001 is 4 μg/mL.
The EPI tested are readily soluble in water and stock solutions are prepared at a final concentration of 2 mg/mL. Stock solutions are further diluted, according to the needs of a particular assay, in Mueller Hinton Broth (MHB). Stock solution can be stored at −80° C. Quinolones are solubilized according to the instructions of the manufacturers, at a concentration of 1 mg/mL. They are then further diluted in MHB. Stock solution can be stored at −80° C.
The checkerboard assay is performed in microtiter plates. Levofloxacin is diluted in the x axis, each column containing a single concentration of levofloxacin. The EPI is diluted in the y axis, each row containing an equal concentration of EPI. The result of these manipulations is that each well of the microtiter plate contains a unique combination of concentrations of the two agents. Each EPI are tested independently.
The assay is performed in MHB with a final bacterial inoculum of 5×10^5 CFU/mL (from an early-log phase culture). Microtiter plates are incubated during 20 h at 35° C. and are read using a microtiter plate reader (Molecular Devices) at 650 nm as well as visual observation using a microtiterplate reading mirror.

| Compound | Levofloxacin MIC Against P. aerugiuosa PAM1001 in Presence of Efflux Pump Inhibitor (EPI), Minimum Inhibitory Concentration (EPI Conc. 0 μg/mL) [µg/mL] | Levofloxacin MIC Against P. aerugiuosa PAM1001 in Presence of Efflux Pump Inhibitor (EPI), Minimum Inhibitory Concentration (EPI Conc. 0.625 μg/mL) [µg/mL] | Levofloxacin MIC Against P. aerugiuosa PAM1001 in Presence of Efflux Pump Inhibitor (EPI), Minimum Inhibitory Concentration (EPI Conc. 1.25 μg/mL) [µg/mL] | Levofloxacin MIC Against P. aerugiuosa PAM1001 in Presence of Efflux Pump Inhibitor (EPI), Minimum Inhibitory Concentration (EPI Conc. 2.5 μg/mL) [µg/mL] | Levofloxacin MIC Against P. aerugiuosa PAM1001 in Presence of Efflux Pump Inhibitor (EPI), Minimum Inhibitory Concentration (EPI Conc. 5 μg/ mL) [µg/mL] | Levofloxacin MIC Against P. aerugiuosa PAM1001 in Presence of Efflux Pump Inhibitor (EPI), Minimum Inhibitory Concentration (EPI Conc. 10 μg/mL) [µg/mL] | Levofloxacin MIC Against P. aerugiuosa PAM1001 in Presence of Efflux Pump Inhibitor (EPI), Minimum Inhibitory Concentration (EPI Conc. 20 μg/mL) [µg/mL] | Levofloxacin MIC Against P. aerugiuosa PAM1001 in Presence of Efflux Pump Inhibitor (EPI), Minimum Inhibitory Concentration (EPI Conc. 40 μg/mL) [µg/mL] |
| --- | --- | --- | --- | --- | --- | --- | --- | --- |
| (2S,4R)-4-(Aminompropionamido)-N-[(1R)-3-phenyl-1-(3-quinolylcarbamolyl)propyl]-2-pyrrolidinecarboxamide [Compound M5] | 4 | 4 | 4 | 4 | 2 | 2 | 0.50 | 0.008 |
| (2R,4S)-4-[(2R)-2-Aminopropionamido]-N-(2-phenylethyl)-N-(3-quinolylcarbamoyl)ethyl]-2-pyrrolidinecarboxamide [Compound M42] | 4 | 4 | 4 | 4 | 4 | 0.50 | 0.06 | 0.06 |
| CCc1ccc2ncc(NC(=O)[C@@H](Cc3ccc(O)cc3)NC(=O)[C@H]3C[C@H](CN)CN3)cc2c1 [Compound M25, (2R,4R)-4-(Amiomethyl)-N-[(1R)-2-(4-hydroxyphenyl)-1-(6-ethyl-3-quinolylcarbamoyl)ethyl]-2-pyrrolidinecarboxamide] | 4 | 4 | 4 | 4 | 4 | 0.5 | 0.015 |  |
| CC(C)C[C@@H](NC(=O)[C@@H]1C[C@@H](NC(=O)CN)CN1)C(=O)Nc1cnc2ccccc2c1 [Compound M8] | 2 | 2 | 2 | 2 | 2 | 2 | 1 | 0.25 |
| NCC(=O)N[C@@H]1CN[C@@H](C(=O)NC(Cc2ccccc2)C(=O)Nc2cnc3ccccc3c2)C1 (stereo partly drawn) [Compound M41, (2R,4S0-4-(2-Aminoacetamideo)-N-(2-phenylethyl)-N-(3-quinolylcarbamoyl)ethyl]-2-pyrrolidinecarboxamide] | 4 | 4 | 2 | 2 | 0.25 | 0.008 | 0.008 | 0.008 |
| (2R,4S)-4-(2-Aminoacetamideo)-N-(2-methylpropyl)-N-(7-ethyl-3-quinolylcarbamoyl)ethyl]-2-pyrrolidinecarboxamide [Compound M44] | 4 | 4 | 4 | 4 | 1 | 0.06 | 0.015 | 0.03 |
| N=C(N)N[C@H]1CN[C@H](C(=O)N[C@H](CCc2ccccc2)C(=O)Nc2cnc3ccccc3c2)C1 [Compound M95, (2S,4R)-4-(Guanadinyl)-N-[(1R)-3-phenyl-1-(3-quinolylcarbamoyl)propyl]-2-pyrrolidinecarboxamide] | 4 | 4 | 4 | 4 | 4 | 4 | 0.03 | 0.015 |
| CC(C)(C)c1ccc2nc(CNC(=O)[C@@H]3C[C@@H](NC(=O)CN)CN3)[nH]c2c1 [Compound M81] | 4 | 4 | 4 | 4 | 2 | 1 | 0.25 | 0.03 |
